The record followed here is patent US20260315434A1, “USE OF GUAIACOL SESQUITERPENE LACTONE DERIVATIVES” (NANJING UNIVERSITY OF CHINESE MEDICINE, priority 2023, published 2026).

Series [1] is described as follows: Water solubility testing of compounds (HPLC). Particulars: deionized water, 37 °C.
Series [2] in a line: Conversion (release) of prodrug salts to parent compound in mouse plasma. In kind it is in vitro ADME. Particulars: mouse, plasma, 37 °C, read-out: Release rate (conversion to Compound 1). On the procedure: (§1) Pharmaceutically acceptable salts of guaiane-type sesquiterpene lactone derivatives were selected and evaluated for their conversion rates to Compound 1 and Compound 83 in plasma and HEPES buffer, with results shown in Tables 2-1, 2-2, 3-1, and 3-2.
Plasma Preparation: Collect mouse plasma into an EP tube pre-loaded with sodium heparin, centrifuge at 8000 rpm for 10 minutes at 4° C., and then collect the supernatant.
(§2) Sample Analysis: Dissolve 0.6 mg of the compound in 250 μL of deionized water separately. Add 250 μL of mouse serum or HEPES 7.4 solution to the sample, incubate at a constant temperature of 37° C., and collect samples at different time points. Pipette 20 μL of the sample to an EP tube, add 60 μL of methanol, vortex to mix thoroughly, and centrifuge at 12,000 rpm at 4° C. for 10 min. At 1 h, 2 h, 4 h, 8 h, and 12 h respectively, collect the supernatant for HPLC analysis. Inject 10 μL of sample and record the corresponding peak areas. Chromatographic conditions: Hanbang C18 column (4.6×250 mm, 5 μm); mobile phase: acetonitrile: […] ammonium formate solution=60:40; flow rate 1.0 mL/min; detection wavelength 210 nm; column temperature 30° C.

The nature of series [3]: Conversion (release) of prodrug salts to parent compound in HEPES buffer pH 7.4. Format: in vitro ADME. Particulars: hepes buffer, pH 7.4, HEPES pH 7.4, 37 °C, read-out: Release rate (conversion to Compound 1). As to the method: as §1
Experimental Method: Preparation of HEPES 7.4 Solution: Dissolve 1.6 g NaCl, 0.074 g KCl, 0.027 g Na2HPO4, 0.2 g glucose, and 1 g 4-(2-Hydroxyethyl)piperazine-1-ethanesulfonic acid (HEPES) solution in 90 mL distilled water. Adjust the pH to 7.4 using 0.5 M NaOH, then dilute to a final volume 100 mL with distilled water.
as §2

In another series the test system is T cells / MDSCs. Briefly: Promotion of T cell proliferation in a co-culture model of MDSCs and T cells. In kind it is cell-based, mouse. The following applies: 1 μM, MDSCs treated 12 hours, co-culture of MDSCs and T cells, compared to the control group. As to the method:
Under sterile conditions, the tibia was removed, both ends of the bone were cut, and bone marrow was repeatedly flushed into a 15 mL centrifuge tube using a 1 mL syringe filled with culture medium. Centrifuge at 1600 rpm for 5 min to collect bone marrow cells. […] The spleen cell suspension was then transferred into a 15 mL centrifuge tube. Centrifuge at 1600 rpm for 5 min to collect T cells. Wash twice with 1×PBS. Resuspend the centrifuged T cells in 1 mL PBS and add 1 mL of 10 μM CFDA-SE solution. Incubate at room temperature for 8 min. […] After drug administration, collect MDSC cells into centrifuge tubes. Centrifuge at 1600 rpm for 5 min, remove supernatant, resuspend in 1 mL fresh medium, and plate. Add 1 mL stimulated activated T cells (1:1 ratio) for 48 h co-culture. After incubation, collect cells into centrifuge tubes, wash twice with PBS, and incubate with Fc antibody at room temperature in the dark for 10 min. Add CD3-labeled flow cytometry antibody and incubate at 4° C. in the dark for 30 min. After incubation, wash cells with PBS, resuspend in 300 μL PBS, and analyze by flow cytometry.

Values after ≈ are worked out from the molar mass of the structure shown.

Take `CC(C)N(C[C@@H]1C(=O)O[C@H]2[C@H]1CC[C@@]1(C)C[C@]13CC[C@@](C)(O)[C@H]23)C(C)C` [Compound 12]: the Water-solubility in series [1] is given as 0.802 mg/mL.

Turning to `C[C@@]12CC[C@@H]3[C@H](OC(=O)[C@H]3CN3CCC3)[C@@H]3[C@]1(CC[C@@]3(C)O)C2` [Compound 14], the Water-solubility in series [1] was found to be 0.460 mg/mL.

`C[C@@]12CC[C@@H]3[C@H](OC(=O)[C@H]3CN3CCC(N4CCCCC4)CC3)[C@@H]3[C@]1(CC[C@@]3(C)O)C2` [Compound 16] had a Water-solubility in series [1] of 0.285 mg/mL.

For the molecule `C[C@@]12CC[C@@H]3[C@H](OC(=O)[C@H]3CN3CCC(N4CCOCC4)CC3)[C@@H]3[C@]1(CC[C@@]3(C)O)C2` [Compound 17], the Water-solubility in series [1] was 0.942 mg/mL.

`C[C@@]12CC[C@@H]3[C@H](OC(=O)[C@H]3CN3CCCCC3)[C@@H]3[C@]1(CC[C@@]3(C)O)C2` [Compound 24]: in series [2], the metabolised at 1 h stood at 7.7%, the metabolised at 2 h worked out at 17.1%, the metabolised at 4 h worked out at 27.7% and the metabolised at 8 h turned out to be 47.8%. In addition, the metabolised at 12 h in series [2] turned out to be 57.9%. Moreover, in series [3], the degraded at 1 h is 6.8%, the degraded at 2 h was found to be 15.1%, the degraded at 4 h stood at 26.7% and the degraded at 8 h turned out to be 42.8%. Further, the degraded at 12 h in series [3] is 54%. Also, the Water-solubility in series [1] is 300.5 mg/mL.

On to `C[C@@]12CC[C@@H]3[C@H](OC(=O)[C@H]3CN3CCOCC3)[C@@H]3[C@]1(CC[C@@]3(C)O)C2` [Compound 25], for which, in series [2], the metabolised at 1 h stood at 6.8%, the metabolised at 2 h amounted to 14.1%, the metabolised at 4 h stood at 25.7% and the metabolised at 8 h came out at 43.8%. Also, the metabolised at 12 h in series [2] is 51.8%. Also, in series [3], the degraded at 1 h is 6.8%, the degraded at 2 h amounted to 14.1%, the degraded at 4 h was found to be 26.1% and the degraded at 8 h came to 42.8%. The degraded at 12 h in series [3] came out at 51.8%. This molecule registered a solubility in series [1] (water, Water-solubility) of 342 mg/mL (≈ 979 mM).

As to `CCCN(CCC)C[C@@H]1C(=O)O[C@H]2[C@H]1CC[C@@]1(C)C[C@]13CC[C@@](C)(O)[C@H]23` [Compound 29], in series [2], the metabolised at 1 h was determined as 6.8%, the metabolised at 2 h came out at 14.2%, the metabolised at 4 h amounted to 24.6% and the metabolised at 8 h was 40.2%. In series [2], the metabolised at 12 h is 49%. Also, in series [3], the degraded at 1 h was found to be 6.8%, the degraded at 2 h amounted to 14.2%, the degraded at 4 h was 24.6% and the degraded at 8 h is 40.2%. In addition, the degraded at 12 h in series [3] amounted to 49.8%. Besides, the Water-solubility in series [1] is reported as 289.5 mg/mL.

Regarding `CCCCN(CCCC)C[C@@H]1C(=O)O[C@H]2[C@H]1CC[C@@]1(C)C[C@]13CC[C@@](C)(O)[C@H]23` [Compound 30], in series [2], the metabolised at 1 h was 6.6%, the metabolised at 2 h is 13.6%, the metabolised at 4 h worked out at 23.8% and the metabolised at 8 h is 40.8%. Moreover, the metabolised at 12 h in series [2] is 48.8%. For the same molecule, in series [3], the degraded at 1 h was 6.6%, the degraded at 2 h is 14.6%, the degraded at 4 h was 23.8% and the degraded at 8 h turned out to be 40.8%. The degraded at 12 h in series [3] came to 49.8%. The same molecule yielded a Water-solubility in series [1] of 228.4 mg/mL.

`CC(C)N(C[C@@H]1C(=O)O[C@H]2[C@H]1CC[C@@]1(C)C[C@]13CC[C@@](C)(O)[C@H]23)C(C)C` [Compound 31]: in series [2], the metabolised at 1 h was 6.5%, the metabolised at 2 h turned out to be 13.9%, the metabolised at 4 h was found to be 24.4% and the metabolised at 8 h turned out to be 40.2%. In addition, the metabolised at 12 h in series [2] was determined as 48.5%. Moreover, in series [3], the degraded at 1 h turned out to be 6.7%, the degraded at 2 h was determined as 14%, the degraded at 4 h amounted to 23% and the degraded at 8 h is 41.2%. Besides, the degraded at 12 h in series [3] worked out at 49.5%. The same molecule had a Water-solubility in series [1] of 254.6 mg/mL.

As to `C[C@@]12CC[C@@H]3[C@H](OC(=O)[C@H]3CN3CC4CCCC4C3)[C@@H]3[C@]1(CC[C@@]3(C)O)C2` (stereo partly shown) [Compound 32], in series [2], the metabolised at 1 h worked out at 6.3%, the metabolised at 2 h worked out at 14.4%, the metabolised at 4 h is 25.2% and the metabolised at 8 h worked out at 43.2%. Also, in series [2], the metabolised at 12 h came out at 51.4%. In series [3], the degraded at 1 h is 6.9%, the degraded at 2 h turned out to be 15.4%, the degraded at 4 h came to 26.2% and the degraded at 8 h was determined as 42.2%. Moreover, in series [3], the degraded at 12 h was 51.2%. The molecule also returned a Water-solubility in series [1] of 100.8 mg/mL.

Turning to `C[C@@]12CC[C@@H]3[C@H](OC(=O)[C@H]3CN3CCC3)[C@@H]3[C@]1(CC[C@@]3(C)O)C2` [Compound 33], in series [2], the metabolised at 1 h turned out to be 6.9%, the metabolised at 2 h is 14.8%, the metabolised at 4 h is 26% and the metabolised at 8 h amounted to 42.8%. In addition, the metabolised at 12 h in series [2] turned out to be 50.7%. Also, in series [3], the degraded at 1 h turned out to be 6.9%, the degraded at 2 h is 15.8%, the degraded at 4 h worked out at 26% and the degraded at 8 h is 41.8%. The degraded at 12 h in series [3] was 51.1%. In series [1], the Water-solubility is 145.5 mg/mL.

In the case of `C[C@@]12CC[C@@H]3[C@H](OC(=O)[C@H]3CN3CCC4(CCCC4)CC3)[C@@H]3[C@]1(CC[C@@]3(C)O)C2` [Compound 34], in series [2], the metabolised at 1 h came to 7.8%, the metabolised at 2 h is 17.2%, the metabolised at 4 h stood at 28.6% and the metabolised at 8 h was 47.6%. In series [2], the metabolised at 12 h came to 58.8%. Besides, in series [3], the degraded at 1 h was determined as 7%, the degraded at 2 h was determined as 16.2%, the degraded at 4 h was 27.6% and the degraded at 8 h came out at 43.6%. In addition, the degraded at 12 h in series [3] was found to be 54.4%. This molecule also displayed a Water-solubility in series [1] of 128.6 mg/mL.

As for `C[C@@]12CC[C@@H]3[C@H](OC(=O)[C@H]3CN3CCC(N4CCCCC4)CC3)[C@@H]3[C@]1(CC[C@@]3(C)O)C2` [Compound 35], in series [2], the metabolised at 1 h was found to be 6.8%, the metabolised at 2 h came to 13.6%, the metabolised at 4 h came out at 26.4% and the metabolised at 8 h came out at 44.8%. For the same molecule, in series [2], the metabolised at 12 h is 52.5%. In addition, in series [3], the degraded at 1 h worked out at 6.8%, the degraded at 2 h was determined as 14.6%, the degraded at 4 h was determined as 26.4% and the degraded at 8 h amounted to 43.8%. The degraded at 12 h in series [3] stood at 52.5%. Also, in series [1], the Water-solubility is on record as 212.6 mg/mL.

Take `C[C@@]12CC[C@@H]3[C@H](OC(=O)[C@H]3CN3CCC(N4CCOCC4)CC3)[C@@H]3[C@]1(CC[C@@]3(C)O)C2` [Compound 36]: in series [2], the metabolised at 1 h turned out to be 6.6%, the metabolised at 2 h came out at 14.8%, the metabolised at 4 h turned out to be 26% and the metabolised at 8 h came to 43.6%. Further, the metabolised at 12 h in series [2] worked out at 52.1%. In addition, in series [3], the degraded at 1 h came to 6.9%, the degraded at 2 h was determined as 14.8%, the degraded at 4 h is 26% and the degraded at 8 h is 43.6%. Further, in series [3], the degraded at 12 h turned out to be 52.4%. The molecule also had a Water-solubility in series [1] of 234.6 mg/mL.

In the case of `CC1=C2CC[C@@](C)(OC(=O)N3CCCC3)[C@@H]2[C@H]2OC(=O)C(CN3CCCC3)[C@@H]2CC1` (stereo partly shown) [compound 104], the “T-cell proliferation rate (%)” value in the series on T cells / MDSCs is “+ (T-cell proliferation rate within the 0-20% range compared to the control group)”.
